The values that follow come from patent US9814696B2, “Use of coumarin derivatives for the preparation of drugs for treating skin diseases” (UNIVERSITE PIERRE ET MARIE CURIE (PARIS 6), priority 2011, dated 2017).

Data set [1] concerns keratinocytes from a Netherton syndrome patient (NSK). The experiment in a line: Expression of pro-allergic and inflammatory molecules (indirect KLK5 activity) in Netherton syndrome patient keratinocytes. The format is cell-based, human. As to conditions: 72 h, relative to HPRT. How it is done: 250,000 keratinocytes from a Netherton syndrome patient (NSK) were seeded in 6 well plates in 2 mL of medium made of: (a) half of complete Green medium: (Dulbecco's Modified Eagle Media) 60%; Ham's F12 30%; FCS 10%; adenin […]; insulin 5 μg/mL; hydrocortisone 0.4 μg/mL; cholera toxin 10 nM; triiodothyronin 2 nM; human recombinant EGF 10 ng/mL; penicillin G/streptomycin 100 U/mL; (b) half of a basal medium (Epilife—Cascade Biologics).
When confluent, cells were washed 5 times with PBS and 2 mL of complete Green medium without FCS (fetal calf serum) were added per well.
Inhibitors were added in the culture medium 24 h after medium renewal.
350 μL of RLT lysis buffer (Mini Kit QIAGEN)+β-mercapto-ethanol (0.1%) were added per well to extract total RNA. The cell lysate was kept at −80° C. before RNA extraction (Mini Kit QIAGEN).
In this in cellulo test, KLK5 activity was evaluated by an indirect method. Indeed KLK5 induces TSLP (thymic stromal lymphopoietin), TNFα (tumor necrosis factor alpha) and IL-8 (interleukin 8) expression. If KLK5 activity is inhibited, the expression of these cytokines will be reduced.
The relative amount of TSLP, TNFα and IL-8 transcripts [relative to HPRT (hypoxanthine phosphoribosyltransferase 1) housekeeping gene] was compared between cells treated or not treated with the inhibitors. The ratio <<treated/not treated>> relative to housekeeping gene reflects KLK5 inhibition.
Their expression had also been studied even if their mechanism of induction is not known yet.
The effect of LP73 and CFL33 on the expression of the described pro-allergic and inflammatory cytokines was analyzed on keratinocytes from two different NS patients. Each experiment was performed twice (FIG. 4).

Data set [2] addresses T1, KLK14 (Homo sapiens, UniProt Q9P0G3).
T1 sequence (Q9P0G3 25-251): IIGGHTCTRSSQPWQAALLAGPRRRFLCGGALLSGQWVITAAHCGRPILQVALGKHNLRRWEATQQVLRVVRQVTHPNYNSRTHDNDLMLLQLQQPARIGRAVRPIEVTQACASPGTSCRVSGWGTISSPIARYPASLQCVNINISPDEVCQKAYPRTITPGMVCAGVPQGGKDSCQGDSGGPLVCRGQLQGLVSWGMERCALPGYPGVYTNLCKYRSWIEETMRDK
The experiment in a line: KLK14 enzyme inhibition assay, fluorogenic substrate Boc-Val-Pro-Arg-AMC. In kind it is biochemical. The following applies: 37° C., 15 min of incubation, pH 8. How it is done:
(§1) Kallikreins KLK5, KLK7 and KLK14 activities were determined by monitoring the hydrolysis of the appropriate fluorogenic substrate (λexc=355, λem=460 nm) for 15 min at 37° C. in the presence of the untreated kallikrein (control) or kallikrein that had been incubated with a test compound. Substrate and compounds were previously dissolved in DMSO, with the final solvent concentration kept constant at 2% (v/v) (KLK 5 and 14), and 4% (v/v) (KLK7). The composition of the activity buffers (pH 8.0) was 100 mM Tris-HCl, 150 mM NaCl, 0.01% (v/v) Tween 20 for the KLK5 assay, and 100 mM Tris-HCl, 1M NaCl, 0.01% (v/v) Tween 20 in the KLK 7 and 14 assays. The final concentrations were 0.6 nM (KLK5) and 100 μM (Boc-Val-Pro-Arg-AMC) (KLK5 assay), 8 nM (KLK7) and 40 μM (Suc-Leu-Leu-Val-Tyr-AMC, AMC: 7-amino-4-methyl-coumarin) (KLK7 assay), and 0.17 nM (KLK14) and 10 μM (Boc-Val-Pro-Arg-AMC) (KLK14 assay). Using the appropriate substrate, the coumarinic compounds (0.01-100 μM) were tested in duplicate for each inhibitor concentration to detect their inhibitory potential. The enzyme and the inhibitors were incubated for 15 min before the determination of the enzyme activity. Initial rates determined in control experiments (V0) were considered to be 100% of the peptidase activity; initial rates below 100% were considered to be inhibitions. The inhibitory activity of compounds was expressed as IC50 (inhibitor concentrations giving 50% inhibition). The values of IC50 were calculated by fitting the experimental data to the equation: % Inhibition=100×(1−Vi/V0)=100[I]0/(IC50+[I]0), or equation: % Inhibition=100[I]0^nH/(IC50^nH+[I]0^nH),nH is the Hill number.
(§2) The tests were realized at 37° C. after 15 min of incubation at pH 8.

Data set [3] has as its target T2, KLK5 (Homo sapiens, UniProt Q9Y337).
T2 sequence (Q9Y337 23-293): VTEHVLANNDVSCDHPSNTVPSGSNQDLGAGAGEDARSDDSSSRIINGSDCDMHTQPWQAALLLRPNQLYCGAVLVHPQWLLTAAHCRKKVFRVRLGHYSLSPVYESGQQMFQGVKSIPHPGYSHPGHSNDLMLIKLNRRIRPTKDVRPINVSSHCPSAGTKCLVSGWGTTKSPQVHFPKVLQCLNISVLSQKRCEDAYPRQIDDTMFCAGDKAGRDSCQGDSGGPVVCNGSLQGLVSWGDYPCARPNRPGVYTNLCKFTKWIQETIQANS
Briefly: KLK5 enzyme inhibition assay, fluorogenic substrate Boc-Val-Pro-Arg-AMC. The format is biochemical. On the procedure: as §1, §2

The subject of data set [4] is normal human keratinocytes. The experiment in a line: Neutral red uptake (NRU) cytotoxicity test / cell viability. The format is cell-based. Further details: cytotoxicity, neutral red uptake test (FIG. 5): dose or concentration left out as unconfirmed. The following applies: 48 h, human normal keratinocytes; for cytotoxicity, neutral red uptake test: 1 and 10 μM. The source says: The NRU cytotoxicity assay procedure is a cell survival/viability chemosensitivity assay based on the ability of viable cells to incorporate and bind neutral red (NR), a supravital dye. NR is a weak cationic dye that readily penetrates cell membranes by non-ionic diffusion and accumulates intracellularly in lysosomes. Alterations of the cell surface or the sensitive lysosomal membrane lead to lysosomal fragility and other changes that gradually become irreversible. Such changes caused by the action of xenobiotics result in a decreased uptake and binding of NR. It is thus possible to distinguish between viable, damaged, or dead cells, which is the basis of this assay. After treatment with the small-molecules inhibitors, NR uptake in cells will be measured by spectrophotometry at 540±10 nm.
Keratinocytes from healthy persons or patients with Netherton syndrome are seeded at the density of 4000 cells in 125 μL of medium per well in 96-well plates.
After seeding, cells are incubated for 48 hours in the following experimental conditions: 37° C.±1° C., 90%±5.0% humidity, and 5%±1% CO2/air. This incubation period allows for cell recovery and adherence and progression to exponential growth phase.
Prepare inhibitors solutions 2-fold more concentrated than desired. Add 125 μL of these solutions to the wells without changing or removing the medium (125 μL).
48 h hours after the beginning of the treatment, carefully remove the medium (containing the tested inhibitor) and rinse the cells very carefully with 250 μL pre-warmed PBS.
Add 250 μL NR medium and incubate (37° C.±1° C., 90%±5% humidity, and 5.0%±1% CO2/air) for 3±0.1 h. NR medium is the culture medium containing 33 μg/mL of NR. After incubation, remove the NR medium, and carefully rinse cells with 250 μL pre-warmed PBS.
Measure the absorption (within 60 minutes after adding NR Desorb solution) of the resulting colored solution at 540 nm±10 nm in a microtiter plate reader (spectrophotometer), using the blank as a reference.
A calculation of cell viability expressed as NRU is made for each concentration of the tested inhibitor by using the mean NRU of the three replicate values per each concentration. This value is compared with the mean NRU of all vehicle values. Relative cell viability is then expressed as percent of untreated vehicle control (DMSO).
Normal human keratinocytes were seeded in a 96-well tissue culture plate. At 20% of confluence, molecules were added in the culture medium and incubated for 48 h. Neutral red medium was added to every well for an incubation period of 3 h, then the dye was extracted with acidified ethanol solution. Data (FIGS. 2 and 3) represent the mean cell viability after treatment +/−SD compared to mean viability of cells treated with the vehicle only (DMSO). Data represent the mean of 5 individual experiments.

Data set [5] addresses KLK7 (Homo sapiens, UniProt P49862). The experiment in a line: KLK7 enzyme inhibition assay, fluorogenic substrate Suc-Leu-Leu-Val-Tyr-AMC. In kind it is biochemical. The following applies: for inhibition at 50 µM / IC50: 37° C., 15 min of incubation, pH 8; for selective activity against enzyme: KLK7: Table B, among KLK5, KLK7 and KLK14. On the procedure:
as §1, §2

In data set [6] the test system is total protease activity of transgenic KLK5 mice skin section. Briefly: In situ zymography on transgenic KLK5 mice skin section. As to conditions: 5 μM. The format is biochemical. On the procedure:
FIG. 6 illustrates the effect of JFR9 compound (5 μM) efficacy on the total protease activity of transgenic KLK5 mice skin section, by in situ zymography.
The protease activity is shown with a gradient of fluorescence. The fluorescence intensity represents the cleavage efficiency of a casein substrate coupled to a FITC group.
JFR9 efficacy has been assayed on transgenic KLK5 mice skin section by in situ zymography (FIG. 6). These mice overexpress KLK5 and reproduce the phenotypic characteristics of Netherton syndrome.

The mark [7] stands for this setting: Table A2, read-out: IC50 (nM) KLK7.

Where two headings read alike, the source gives them in different places.

Sequence of KLK7 (P49862 30-253): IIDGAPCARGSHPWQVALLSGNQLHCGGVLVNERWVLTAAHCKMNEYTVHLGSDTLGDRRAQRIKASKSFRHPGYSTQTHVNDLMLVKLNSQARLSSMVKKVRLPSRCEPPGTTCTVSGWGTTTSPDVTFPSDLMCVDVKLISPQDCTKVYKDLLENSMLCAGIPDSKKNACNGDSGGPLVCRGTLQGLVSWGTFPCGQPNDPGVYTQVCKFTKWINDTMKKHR

For orientation: inhibition means the percentage by which the read-out fell short of the control. Usually IC50 stands for the concentration needed to halve the response being measured. Consider `O=C(Oc1nccc2ccccc12)c1cc2ccccc2oc1=O` [CFL33, Isoquinolin-1-yl 2-oxo-2H-1-benzopyran-3-carboxylate], for which, in data set [1] (1 μM), the “expression of IL-8” value was “significantly inhibited”, the “expression of MDC” value was “significantly inhibited” and the “expression of TARC” value was “significantly inhibited”. The inhibition at 100 µM in data set [2] is 61%. Also, in data set [3] (Table A, 37° C., 15 min of incubation, pH 8, read-out: IC50 (μM) KLK5), the IC50 is 7 ± 0.4 µM. The “selective activity against enzyme: KLK5” value in data set [3] (Table B, among KLK5, KLK7 and KLK14) is recorded as “KLK5”. Besides, the “cytotoxicity, neutral red uptake test” value in data set [4] is “No noticeable cytotoxicity”.
What is called melting point is the temperature, or range, at which the solid turns liquid. `O=C(Oc1cccc2ccccc12)c1cc2ccccc2oc1=O` [JFR1, 1-Naphthyl 2-oxo-2H-1-benzopyran-3-carboxylate] came in with a melting point of 159 to 160 °C. In data set [5], testing at 50 µM gave an inhibition of 53% and the “selective activity against enzyme: KLK7” value was “KLK7”.
As for `O=C(Oc1ccc2ccccc2c1)c1cc2ccccc2oc1=O` [JFR2, 2-Naphthyl 2-oxo-2H-1-benzopyran-3-carboxylate], the melting point is 166 to 167 °C. In data set [5], the inhibition at 50 µM amounted to 30% and the “selective activity against enzyme: KLK7” value is “KLK7”.
For `O=C(Oc1ccc(Cl)cc1)c1cc2cc(CF)ccc2oc1=O` [JFR7, 4-Chlorophenyl 6-fluoromethyl-2-oxo-2H-1-benzopyran-3-carboxylate] the same measures were 216 to 218 °C, 30% and “KLK7”.
In the case of `O=C(Oc1cccc(Cl)c1)c1cc2cc(CBr)ccc2oc1=O` [JFR9, 3-Chlorophenyl 6-bromomethyl-2-oxo-2H-1-benzopyran-3-carboxylate], the “total protease activity of skin section (casein-FITC cleavage)” value in data set [6] is “decreased significantly”. Also, the concentration for half-maximal inhibition (IC50) worked out at 2900 ± 100 nM in data set [2] (Table A2, read-out: IC50 (nM) KLK14); 0.92 ± 0.07 µM in data set [3] (Table A2, 37° C., 15 min of incubation, pH 8, read-out: IC50 (nM) KLK5); 63.7 ± 1.7 nM in data set [5] (setting [7]). The “cytotoxicity, neutral red uptake test (FIG. 5)” value in data set [4] was “No noticeable cytotoxicity”. The “selective activity against enzyme: KLK7” value in data set [5] is reported as “KLK7”.
For `O=C(Oc1cccc(Cl)c1Cl)c1cc2cc(CCl)ccc2oc1=O` [LP73], in data set [1] (1 μM), the “expression of IL-8” value is listed as “significantly inhibited”, the “expression of MDC” value is recorded as “significantly inhibited”, the “expression of TARC” value is given as “significantly inhibited” and the “expression of TNFα” value was “significantly inhibited”. Also, the “expression of TSLP” value in data set [1] (1 μM) was “significantly inhibited”. For the same compound, in data set [1] (10 μM), the “expression of TARC” value is reported as “inhibited” and the “expression of TSLP” value was “inhibited”. For the same compound, in data set [4], the “cytotoxicity, neutral red uptake test” value is “No noticeable cytotoxicity”. In addition, the IC50 in data set [5] (Table A, read-out: IC50 (μM) KLK7) was determined as 63 ± 4 nM. For the same compound, the “selective activity against enzyme: KLK7” value in data set [5] is “KLK7”.
For the compound `O=C(Oc1cccnc1)c1cc2cc(CCl)ccc2oc1=O` [MFS33], the inhibition at 100 µM in data set [2] amounted to 60%; in data set [3] (100 μM, 37° C., 15 min of incubation, pH 8) it was 62%. Besides, in data set [4], the “cytotoxicity, neutral red uptake test” value is reported as “No noticeable cytotoxicity”. The 50% inhibitory concentration (IC50) in data set [5] (setting [7]) worked out at 5.7 ± 0.3 nM.
